Literature values as cited in paper PMC5857253 (Bioorganic chemistry, 2018).

Molecular target: β-galactosidase (A. oryzae) (Aspergillus oryzae, UniProt Q2UCU3)
Conditions: methods described by Bartlett et al.

Chain of β-galactosidase (A. oryzae) (Q2UCU3 19-1005): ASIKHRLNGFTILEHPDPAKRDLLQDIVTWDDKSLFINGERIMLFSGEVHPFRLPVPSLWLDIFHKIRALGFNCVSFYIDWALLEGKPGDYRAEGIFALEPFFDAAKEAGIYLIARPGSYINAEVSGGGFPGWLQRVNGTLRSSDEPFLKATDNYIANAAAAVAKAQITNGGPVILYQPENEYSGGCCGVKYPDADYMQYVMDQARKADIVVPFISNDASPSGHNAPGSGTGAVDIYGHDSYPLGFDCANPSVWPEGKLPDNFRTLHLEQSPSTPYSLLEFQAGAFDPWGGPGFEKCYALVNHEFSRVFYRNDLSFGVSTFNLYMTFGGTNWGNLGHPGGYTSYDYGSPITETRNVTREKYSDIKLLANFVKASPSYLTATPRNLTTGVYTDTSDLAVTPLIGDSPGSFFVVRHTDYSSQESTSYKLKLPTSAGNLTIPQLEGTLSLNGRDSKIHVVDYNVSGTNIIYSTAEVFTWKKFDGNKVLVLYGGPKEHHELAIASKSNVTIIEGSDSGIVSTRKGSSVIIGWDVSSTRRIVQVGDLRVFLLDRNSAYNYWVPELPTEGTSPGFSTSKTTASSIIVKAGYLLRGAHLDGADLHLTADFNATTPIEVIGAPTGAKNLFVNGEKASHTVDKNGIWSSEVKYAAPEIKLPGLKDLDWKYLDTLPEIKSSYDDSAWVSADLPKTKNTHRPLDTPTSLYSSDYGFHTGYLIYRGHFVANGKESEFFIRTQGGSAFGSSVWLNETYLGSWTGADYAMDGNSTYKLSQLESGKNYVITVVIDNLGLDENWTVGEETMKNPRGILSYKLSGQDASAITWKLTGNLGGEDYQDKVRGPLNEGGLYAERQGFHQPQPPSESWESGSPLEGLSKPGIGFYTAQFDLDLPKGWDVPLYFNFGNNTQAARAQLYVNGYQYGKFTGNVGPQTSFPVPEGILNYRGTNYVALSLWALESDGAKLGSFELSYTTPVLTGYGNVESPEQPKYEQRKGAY

Cc1ccc(C/N=C2\N[C@H](CO)[C@H](O)[C@H](O)[C@H]2O)cc1 [1a, p-methylbenzyl galactonoamidine]
classification as putative transition state analog (TSA): characterized as a putative transition state analog
